{"source": "patent US10047050B2", "about": "“3,4-di-substituted pyridine compound, methods of using and compositions comprising the same” (ARDEA BIOSCIENCES, INC., priority 2011, dated 2018)", "system": "serum uric acid", "experiment": "Multi-dose Phase I clinical trial, serum uric acid (sUA), once daily for 10 days", "type": "in vivo, human", "settings": "for % sUA change (from baseline), Mean (3-11) / Absolute sUA concentration, Mean (3-11): group 9, 10 mg once daily for 10 days, mean of subjects 3-11; for % sUA change (from baseline), Mean (4-12) / Absolute sUA concentration, Mean (4-12) / Absolute sUA concentration: group 7, 1 mg once daily for 10 days; for % sUA change (from baseline), Mean (4-12) / Absolute sUA concentration, Mean (4-12): mean of subjects 4-12; for Absolute sUA concentration: individual subjects 4-12", "source_text": "A Phase 1, Randomized, Double-Blind, Placebo-Controlled Study to Evaluate Safety, Tolerability, Pharmacokinetics and Preliminary Food Effect of Multiple Rising Doses of a URAT1 Inhibitor, in Healthy Adult Male Volunteers.\nFasted subjects receive oral doses of active or placebo, once daily, for 10 days, at the following doses:\n36 subjects in 3 dose groups, 12 subjects/group, are randomized […] to receive active (9/group) or placebo ([…]). All study procedures are the same regardless of whether subject receives active or placebo. Total duration of subject participation, including screening period, is ˜2-4 weeks, and the total volume of blood collected from each subject during the entire study <500 mL, (less than typically collected during a volunteer blood donation).\n5 mg, active and placebo, tablets packaged in 35 count HDPE bottles, stored at controlled room temperature (15-30° C.). Placebo tablets are designed to match the active tablets—identical size, form, taste, and color, and containing the same excipients. 1 mg doses were administered as oral solutions.\nSubjects dosed in the morning of Days 1-10 with ˜240 mL of room temp water.\nUrine, serum and plasma samples collected periodically\nPD samples frozen (−20° C.) and stored; all samples from a given subject assayed in a single analytical run.", "note": "Where “and” joins values, the source holds several entries; their conditions need not be identical. Equal values may be shown once."}
{"smiles": "CC(C)(Sc1ccncc1-c1ccc(C#N)c2ccccc12)C(=O)O", "note": "[2-((3-(4-cyanonaphthalen-1-yl)pyridin-4-yl)thio)-2-methylpropanoic acid]", "values": [{"measurement": "% sUA change (from baseline), Mean (3-11)", "setting": "Time 0 (baseline)", "value": 0, "unit": "%"}, {"measurement": "Absolute sUA concentration, Mean (3-11)", "setting": "Time 0 (baseline)", "value": 6.4, "unit": "mg/dL"}, {"measurement": "% sUA change (from baseline), Mean (3-11)", "setting": "Time 6", "value": "−30.2", "unit": "%"}, {"measurement": "Absolute sUA concentration, Mean (3-11)", "setting": "Time 6", "value": 4.5, "unit": "mg/dL"}, {"measurement": "% sUA change (from baseline), Mean (3-11)", "setting": "Time 12", "value": "−36.8", "unit": "%"}, {"measurement": "Absolute sUA concentration, Mean (3-11)", "setting": "Time 12", "value": 4.1, "unit": "mg/dL"}, {"measurement": "% sUA change (from baseline), Mean (3-11)", "setting": "Time 24", "value": "−32.0", "unit": "%"}, {"measurement": "Absolute sUA concentration, Mean (3-11)", "setting": "Time 24", "value": 4.4, "unit": "mg/dL"}, {"measurement": "% sUA change (from baseline), Mean (3-11)", "setting": "Time 48", "value": "−35.0", "unit": "%"}, {"measurement": "Absolute sUA concentration, Mean (3-11)", "setting": "Time 48", "value": 4.1, "unit": "mg/dL"}, {"measurement": "% sUA change (from baseline), Mean (3-11)", "setting": "Time 72", "value": "−49.7", "unit": "%"}, {"measurement": "Absolute sUA concentration, Mean (3-11)", "setting": "Time 72", "value": 3.2, "unit": "mg/dL"}, {"measurement": "% sUA change (from baseline), Mean (3-11)", "setting": "Time 96", "value": "−53.7", "unit": "%"}, {"measurement": "Absolute sUA concentration, Mean (3-11)", "setting": "Time 96", "value": 3.0, "unit": "mg/dL"}, {"measurement": "% sUA change (from baseline), Mean (3-11)", "setting": "Time 102", "value": "−55.2", "unit": "%"}, {"measurement": "Absolute sUA concentration, Mean (3-11)", "setting": "Time 102", "value": 2.9, "unit": "mg/dL"}, {"measurement": "% sUA change (from baseline), Mean (3-11)", "setting": "Time 108", "value": "−57.2", "unit": "%"}, {"measurement": "Absolute sUA concentration, Mean (3-11)", "setting": "Time 108", "value": 2.7, "unit": "mg/dL"}, {"measurement": "% sUA change (from baseline), Mean (3-11)", "setting": "Time 120", "value": "−47.0", "unit": "%"}, {"measurement": "Absolute sUA concentration, Mean (3-11)", "setting": "Time 120", "value": 3.4, "unit": "mg/dL"}, {"measurement": "% sUA change (from baseline), Mean (3-11)", "setting": "Time 144", "value": "−44.3", "unit": "%"}, {"measurement": "Absolute sUA concentration, Mean (3-11)", "setting": "Time 144", "value": 3.5, "unit": "mg/dL"}, {"measurement": "% sUA change (from baseline), Mean (3-11)", "setting": "Time 168", "value": "−49.6", "unit": "%"}, {"measurement": "Absolute sUA concentration, Mean (3-11)", "setting": "Time 168", "value": 3.2, "unit": "mg/dL"}, {"measurement": "% sUA change (from baseline), Mean (3-11)", "setting": "Time 192", "value": "−55.8", "unit": "%"}, {"measurement": "Absolute sUA concentration, Mean (3-11)", "setting": "Time 192", "value": 2.8, "unit": "mg/dL"}, {"measurement": "% sUA change (from baseline), Mean (3-11)", "setting": "Time 216", "value": "−51.3", "unit": "%"}, {"measurement": "Absolute sUA concentration, Mean (3-11)", "setting": "Time 216", "value": 3.1, "unit": "mg/dL"}, {"measurement": "% sUA change (from baseline), Mean (3-11)", "setting": "Time 222, post dosing", "value": "−56.1", "unit": "%"}, {"measurement": "Absolute sUA concentration, Mean (3-11)", "setting": "Time 222, post dosing", "value": 2.8, "unit": "mg/dL"}, {"measurement": "% sUA change (from baseline), Mean (3-11)", "setting": "Time 228, post dosing", "value": "−57.8", "unit": "%"}, {"measurement": "Absolute sUA concentration, Mean (3-11)", "setting": "Time 228, post dosing", "value": 2.7, "unit": "mg/dL"}, {"measurement": "% sUA change (from baseline), Mean (3-11)", "setting": "Time 240, post dosing", "value": "−48.6", "unit": "%"}, {"measurement": "Absolute sUA concentration, Mean (3-11)", "setting": "Time 240, post dosing", "value": 3.3, "unit": "mg/dL"}, {"measurement": "% sUA change (from baseline), Mean (3-11)", "setting": "Time 246, post dosing", "value": "−42.8", "unit": "%"}, {"measurement": "Absolute sUA concentration, Mean (3-11)", "setting": "Time 246, post dosing", "value": 3.7, "unit": "mg/dL"}, {"measurement": "% sUA change (from baseline), Mean (3-11)", "setting": "Time 252, post dosing", "value": "−43.6", "unit": "%"}, {"measurement": "Absolute sUA concentration, Mean (3-11)", "setting": "Time 252, post dosing", "value": 3.6, "unit": "mg/dL"}, {"measurement": "% sUA change (from baseline), Mean (3-11)", "setting": "Time 264, post dosing", "value": "−38.9", "unit": "%"}, {"measurement": "Absolute sUA concentration, Mean (3-11)", "setting": "Time 264, post dosing", "value": 3.9, "unit": "mg/dL"}, {"measurement": "% sUA change (from baseline), Mean (3-11)", "setting": "Time 270, post dosing", "value": "−36.1", "unit": "%"}, {"measurement": "Absolute sUA concentration, Mean (3-11)", "setting": "Time 270, post dosing", "value": 4.1, "unit": "mg/dL"}, {"measurement": "% sUA change (from baseline), Mean (3-11)", "setting": "Time 288, post dosing", "value": "−35.1", "unit": "%"}, {"measurement": "Absolute sUA concentration, Mean (3-11)", "setting": "Time 288, post dosing", "value": 4.2, "unit": "mg/dL"}, {"measurement": "% sUA change (from baseline), Mean (3-11)", "setting": "Time 312, post dosing", "value": "−25.9", "unit": "%"}, {"measurement": "Absolute sUA concentration, Mean (3-11)", "setting": "Time 312, post dosing", "value": 4.7, "unit": "mg/dL"}, {"measurement": "% sUA change (from baseline), Mean (4-12)", "setting": "Time 0", "value": 0, "unit": "%"}, {"measurement": "Absolute sUA concentration, Mean (4-12)", "setting": "Time 0", "value": 6.2, "unit": "mg/dL"}, {"measurement": "% sUA change (from baseline), Mean (4-12)", "setting": "Time 6", "value": "−3.0", "unit": "%"}, {"measurement": "Absolute sUA concentration, Mean (4-12)", "setting": "Time 6", "value": 6.0, "unit": "mg/dL"}, {"measurement": "% sUA change (from baseline), Mean (4-12)", "setting": "Time 12", "value": "−9.2", "unit": "%"}, {"measurement": "Absolute sUA concentration, Mean (4-12)", "setting": "Time 12", "value": 5.6, "unit": "mg/dL"}, {"measurement": "% sUA change (from baseline), Mean (4-12)", "setting": "Time 24", "value": 1.4, "unit": "%"}, {"measurement": "Absolute sUA concentration, Mean (4-12)", "setting": "Time 24", "value": 6.2, "unit": "mg/dL"}, {"measurement": "% sUA change (from baseline), Mean (4-12)", "setting": "Time 48", "value": "−17.6", "unit": "%"}, {"measurement": "Absolute sUA concentration, Mean (4-12)", "setting": "Time 48", "value": 5.1, "unit": "mg/dL"}, {"measurement": "% sUA change (from baseline), Mean (4-12)", "setting": "Time 72", "value": "−3.4", "unit": "%"}, {"measurement": "Absolute sUA concentration, Mean (4-12)", "setting": "Time 72", "value": 6.0, "unit": "mg/dL"}, {"measurement": "Absolute sUA concentration", "setting": "Time 96", "value": "5.0 mg/dL (2×) and 5.1 mg/dL (2×) and 6.7 mg/dL (2×) and 6.1 mg/dL and 6.0 mg/dL and 5.5 mg/dL"}, {"measurement": "% sUA change (from baseline), Mean (4-12)", "setting": "Time 96", "value": "−7.9", "unit": "%"}, {"measurement": "Absolute sUA concentration, Mean (4-12)", "setting": "Time 96", "value": 5.7, "unit": "mg/dL"}, {"measurement": "Absolute sUA concentration", "setting": "Time 102", "value": "4.4 mg/dL and 4.9 mg/dL (2×) and 6.2 mg/dL (2×) and 5.9 mg/dL and 5.7 mg/dL and 4.6 mg/dL and 5.4 mg/dL"}, {"measurement": "% sUA change (from baseline), Mean (4-12)", "setting": "Time 102", "value": "−13.2", "unit": "%"}, {"measurement": "Absolute sUA concentration, Mean (4-12)", "setting": "Time 102", "value": 5.4, "unit": "mg/dL"}, {"measurement": "Absolute sUA concentration", "setting": "Time 108", "value": "4.1 mg/dL and 4.4 mg/dL and 4.8 mg/dL and 6.1 mg/dL and 5.9 mg/dL and 5.4 mg/dL and 5.6 mg/dL and 4.3 mg/dL and 5.0 mg/dL"}, {"measurement": "% sUA change (from baseline), Mean (4-12)", "setting": "Time 108", "value": "−18.0", "unit": "%"}, {"measurement": "Absolute sUA concentration, Mean (4-12)", "setting": "Time 108", "value": 5.1, "unit": "mg/dL"}, {"measurement": "Absolute sUA concentration", "setting": "Time 120", "value": "4.6 mg/dL and 5.0 mg/dL (2×) and 4.9 mg/dL and 6.6 mg/dL and 6.2 mg/dL (2×) and 5.8 mg/dL and 5.6 mg/dL"}, {"measurement": "% sUA change (from baseline), Mean (4-12)", "setting": "Time 120", "value": "−10.3", "unit": "%"}, {"measurement": "Absolute sUA concentration, Mean (4-12)", "setting": "Time 120", "value": 5.5, "unit": "mg/dL"}, {"measurement": "Absolute sUA concentration", "setting": "Time 144", "value": "4.6 mg/dL and 5.0 mg/dL (2×) and 4.8 mg/dL and 6.5 mg/dL and 6.2 mg/dL and 6.1 mg/dL and 5.8 mg/dL and 5.5 mg/dL"}, {"measurement": "% sUA change (from baseline), Mean (4-12)", "setting": "Time 144", "value": "−11.0", "unit": "%"}, {"measurement": "Absolute sUA concentration, Mean (4-12)", "setting": "Time 144", "value": 5.5, "unit": "mg/dL"}, {"measurement": "Absolute sUA concentration", "setting": "Time 168", "value": "5.2 mg/dL and 5.8 mg/dL and 5.6 mg/dL and 7.2 mg/dL and 6.8 mg/dL and 6.3 mg/dL and 6.5 mg/dL and 5.4 mg/dL and 6.2 mg/dL"}, {"measurement": "% sUA change (from baseline), Mean (4-12)", "setting": "Time 168", "value": "−0.8", "unit": "%"}]}
